# Source: patent US20060057069A1, “Detection of protein expression in vivo using fluorescent puromycin conjugates” (CALIFORNIA INSTITUTE OF TECHNOLOGY, priority 2004, published 2006)
# Counter-ions that a name gives are not always drawn. Like-named read-outs stand apart in the source and are kept apart here.
# Legend:
# [1] = system: cultured hippocampal neurons; assay: F2P (fluorescein-dC-puromycin) reporter of endogenous protein synthesis in cultured hippocampal neurons; format: cell-based, rat; conditions: for effect of co-application on basal F2P fluorescence in dendrites: co-application with F2P
# Procedure: Dissociated hippocampal neurons were prepared and maintained as previously described. Briefly, hippocampi from postnatal day 2 Sprague-Dawley rat pups were enzymatically and mechanically dissociated and plated into poly-lysine coated glass-bottom petri dishes (Mattek). Neurons were maintained for 14-21 days at 37° C. in growth medium (Neurobasal A supplemented with B27 and Glutamax-1, Invitrogen).
# All images were acquired with an Olympus IX-70 confocal laser scanning microscope running Fluoview software (Olympus America, Inc). GFP, Alexa 488, and F2P were excited with the 488 nm line of an argon ion laser, and emitted light was collected between 510 and 550 nm. Alexa 568 was excited with the 568 nm line of a krypton ion laser, and emitted light was collected above 600 nm. In experiments where two channels were acquired simultaneously, settings were chosen to ensure no signal bleed-through between channels. For between-dish comparisons on a given day, all images were acquired at the same settings, without knowledge of the experimental condition during image acquisition. All post-acquisition processing and analysis was carried out with ImageJ (NIH) and Matlab (The MathWorks, Inc.). To facilitate the analysis of fluorescence signal as a function of distance from the soma, dendrites were linearized and extracted from the full-frame image using a modified version of the Straighten plugin for ImageJ.
# To determine whether D1/D5 receptors activate the translation of endogenous mRNAs in living neurons, fluorescein-dC-puromycin (F2P), a novel protein synthesis reporter based on the peptidyl transferase inhibitor puromycin [35] was used. Because puromycin is a structural analog of an amino-acyl tRNA molecule, it enters ribosomes actively engaged in translation where it becomes covalently attached to the carboxy-terminus of nascent proteins through a peptide linkage. Initially, whether F2P can serve as a protein synthesis reporter in cultured hippocampal neurons was examined (FIGS. 11A, B). […] (FIG. 11B).
# 16610D9 thymocyte cells [2] = assay: Western analysis of treated cells with anti-fluorescein antibody; format: cell-based, mouse; conditions: conjugates 25 μM; anisomycin 250 ng/mL
# Procedure: Live cell number was determined using trypan blue exclusion dye and each sample was adjusted to contain an equal number of live cells. Cell pellets were resuspended in 2× lysis buffer (100 mM β-glycerophosphate, 3 mM EGTA, 2 mM EDTA, 0.2 mM sodium-orthovanadate, 2 mM DTT, 20 μg/ml aprotinin, 20 μg/ml leupeptin, 50 μg/ml trypsin inhibitor, and 4 μg/ml pepstatin, and 1% Triton X-100) and incubated on ice for 30 min. Cell debris was removed by centrifugation at 20,000×g for 30 min. Cell lysate was combined with SDS loading buffer (0.12 M Tris-Cl (pH 6.8), 20% glycerol, 4% (w/v) SDS, 2% (v/v) β-mercaptoethanol, and 0.001% bromophenol blue) and heated at 90° C. for 10 min. Samples were applied entirely to a 4% stacking portion of a 10% glycine-SDS-polyacrylamide gel (30 mA for 1 h, 30 min). Protein was transferred using standard Western transfer techniques and the blot was probed with an anti-fluorescein antibody followed by an anti-rabbit-horseradish peroxidase conjugate (Pierce chemicals). The chemiluminescence reaction was carried out using the ECL PLUS Western Blotting […] System (Amersham BioSciences).
# Action of puromycin and the conjugates should result in proteins bearing these compounds at their C-terminus in vivo. Western blot analysis of cellular lysates was chosen to examine if incorporation occurred in vivo and compare the resulting signal with the control conjugates. […]
# dopamine D1/D5 receptor = assay: GFP protein synthesis reporter imaging in cultured hippocampal neurons; format: cell-based, rat; conditions: co-application with SKF
# Procedure: Dissociated hippocampal neurons were prepared and maintained as previously described [34]. Briefly, hippocampi from postnatal day 2 Sprague-Dawley rat pups were enzymatically and mechanically dissociated and plated into poly-lysine coated glass-bottom petri dishes (Mattek). Neurons were maintained for 14-21 days at 37° C. in growth medium (Neurobasal A supplemented with B27 and Glutamax-1, Invitrogen).
# All images were acquired with an Olympus IX-70 confocal laser scanning microscope running Fluoview software (Olympus America, Inc). GFP, Alexa 488, and F2P were excited with the 488 nm line of an argon ion laser, and emitted light was collected between 510 and 550 nm. Alexa 568 was excited with the 568 nm line of a krypton ion laser, and emitted light was collected above 600 nm. […] To facilitate the analysis of fluorescence signal as a function of distance from the soma, dendrites were linearized and extracted from the full-frame image using a modified version of the Straighten plugin for ImageJ.
# Dendrites were analyzed for time-lapse as follows: fluorescence was averaged across the width of linearized dendrites, generating a vector of mean pixel intensities equal to the length of the dendrite, ΔF/F (Ftn-Ft0/Ft0) was then computed at each pixel along the dendritic length. […]
# D1/D5 receptors = assay: Miniature excitatory postsynaptic currents (mEPSCs) in cultured hippocampal neurons; format: cell-based, rat; conditions: anisomycin with DHX; PKI6-22 in the recording pipette
# Description: Given the increase in the total and synaptic GluRl population, the effects of dopamine agonists on synaptic transmission was examined. To monitor synaptic strength before and after exposure to a dopamine agonist, miniature excitatory postsynaptic currents (mEPSCs) in cultured hippocampal neurons were examined.
# [3] = system: 16610D9 cells infected with MIG; assay: Killing of MIG-infected (no PAC resistance) cells, flow cytometry; format: cell-based, mouse; conditions: long exposure, 48 h incubation
# Procedure: (§1) The PAC gene was cloned into MIG using BgII and EcoRI restriction sites to yield MIGPAC. 293T-HEK fibroblasts (American Tissue Culture Collection) were co-transfected with pECL-Eco [30] and MIG or MIGPAC by calcium phosphate precipitation. After 12 hours, the precipitate was removed, cells were washed once with PBS, and 4 mL of fresh complete Dulbecco's Modified Eagle Medium (DMEM) supplemented with 10% fetal calf serum (FCS). Viral supernatant was removed 24 hours later and used in infection of 16610D9 cells. One million D9 cells were spin-infected with 0.4 mL of viral supernatant suplemented with 5 μg/ml Polybrene (Sigma-Aldrich).
# (§2) 16610D9 cells infected with either MIG of MIGPAC were cultured in RPMI media with 10% FBS and grown at […] in a humidified atmosphere with 5% CO2. For each experiment, 16610D9 cells (0.25×10^6/well) were added to 24-well microtiter plates along with puromycin, puromycin-conjugate, and control molecules dissolved in the minimum amount of either media or PBS. After a 48 h incubation, the cells were washed twice in 2 mL PBS+4% FCS and resuspended in PBS+4% FCS supplemented with 2% formaldehyde along with incubation at 37° C. for 10 min. […]
# (§3) Foreign genes can be inserted into D9 cells by infection with a viral vector (see Experimental Procedures). […] MIG expresses GFP so that infection efficiency can be monitored by GFP fluorescence (FIG. 7A). […]
# [4] = system: 16610D9 cells infected with MIGPAC; assay: Enrichment of GFP(+) MIGPAC-infected (PAC-expressing) cells, flow cytometry; format: cell-based, mouse; conditions: 48 h; 4.3% GFP-positive before treatment
# Procedure: as §1, §2, §3
# 16610D9 thymocyte cells [5] = assay: Detection of protein synthesis events in live cells by flow cytometry (fluorescence labeling); format: cell-based
# Procedure: 16610D9 cells (0.5 million mL^−1) were combined with the various puromycin conjugates and control molecules resuspended in the minimum volume of PBS or media as described above. After a 24 h incubation, the cells were washed twice in 2 mL PBS+4% FCS and resuspended in PBS+4% FCS supplemented with 2% formaldehyde followed by incubation at 37° C. for 10 min or used directly after washing for immediate flow cytometry analysis.
# In order to analyze the activity of puromycin conjugates in vivo, choosing of both an appropriate cell line and an appropriate quantitation and detection scheme was needed. While microscopy is a powerful means to analyze individual cells and small sections of tissue, performance of experiments where thousands to millions of cells could be examined for protein labeling was desired. Therefore, flow cytometry was chosen as the primary means to analyze uptake and incorporation of the conjugates. In addition to providing a quantitative measure of fluorescence and cell size, flow cytometry methods enable live cells and dead cells to be readily distinguished.
# globin translation [6] = conditions: previously shown, ref [14]; read-out: IC50 (in vitro translation inhibition) from reference [14]; cited from earlier work
# globin translation [7] = assay: In vitro potency determination: inhibition of globin mRNA translation in rabbit reticulocyte lysate; format: biochemical; conditions: read-out: IC50: concentration of puromycin conjugate required for 50% inhibition of globin translation, 30° C. 60 min, standard error <5% in replicates
# Procedure: Translation reactions containing [^35S]Met were mixed in batch on ice and added in aliquots to microcentrifuge tubes containing an appropriate amount of puromycin conjugate (or control molecule) dried in vacuo. […] Inhibitor, lysate preparation (including all components except template), and globin mRNA were mixed simultaneously and incubated at 30° C. for 60 min. Each reaction (2 μL) was combined with 8 μL of tricine loading buffer (80 mM Tris-Cl (pH 6.8), 200 mM DTT, 24% (v/v) glycerol, 8% sodium dodecyl sulfate (SDS), and 0.02% (w/v) Coomassie blue G-250), heated to 90° C. for 5 min, and applied entirely to a 4% stacking portion of a 15% tricine-SDS-polyacrylamide gel containing 20% (v/v) glycerol [29] (30 mA for 1 h, 30 min). Gels were fixed in 10% acetic acid (v/v) and 50% (v/v) methanol, dried, exposed overnight on a Phosphorlmager screen, and analyzed using a Storm Phosphorlmager (Molecular Dynamics).
# Initial analysis began by examining the activity of each of the conjugates in vitro for their ability to inhibit protein translation.
# [8] = 24 h incubation, conjugates at 50 μM, live-cell gate
compound,measurement,setting,value
"Oc1cc2c(cc1O)[C@H]1c3ccccc3CN[C@@H]1CC2 (racemic) [DHX, dihydrexidine]",F2P incorporation in locally perfused dendrites compared to control dendrites,"[1]; perfused 15 minutes on dendritic segment, p<0.05, n=8 dendrites",significantly greater F2P incorporation
COc1ccc(C[C@H]2NC[C@H](O)[C@H]2OC(C)=O)cc1 [anisomycin],incorporation into cellular protein (anti-fluorescein Western signal),16610D9 thymocyte cells [2],essentially no signal
same,effect of co-application on the effects of SKF on GFP signal,dopamine D1/D5 receptor,completely prevented
same,effect on DHX-induced increase in mEPSC frequency,D1/D5 receptors,completely prevented
same,effect of co-application on basal F2P fluorescence in dendrites,[1],significantly attenuated
same,effect on DHX-produced enhancement of F2P incorporation,"[1]; preincubation and perfusion with anisomycin, p<0.01",completely blocked
"COc1ccc(C[C@H](N)C(=O)N[C@H]2[C@@H](O)[C@H](n3cnc4c(N(C)C)ncnc43)O[C@@H]2CO)cc1 [puromycin, L-Puromycin hydrochloride]",effect on MIG infected cells (killing),[3],almost complete killing of both GFP-positive and GFP-negative cells
same,GFP-positive cells in population after treatment,[4],94%
same,effect of co-application on basal F2P fluorescence in dendrites,[1],significantly attenuated
Fluorescein-puromycin [FP],rank order of fluorescence enhancement,16610D9 thymocyte cells [5]; [8],DMT-F2P-Me (12)>FB2P (1)˜BF2P (8)>F2P (4)˜F2P-Me (10)>FP
same,relative level of fluorescence enhancement,16610D9 thymocyte cells [5]; [8],small fluorescence enhancement
same,IC50,globin translation [6],120 µM
biotin-dC-puromycin,IC50,globin translation [6],11 µM
biotin-puromycin,IC50,globin translation [6],54 µM
fluorescein-dC-puromycin [F2P],IC50,globin translation [7],22 µM
same,enhanced fluorescence relative to the F2A control molecule,"16610D9 thymocyte cells [5]; 5 μM and 25 μM, live cell population",up to 4 fold
same,effect on cell viability,"16610D9 thymocyte cells [5]; 5 μM and 25 μM, F2P statement for 48 hours incubation",kills the majority of cells
same,rank order of fluorescence enhancement,16610D9 thymocyte cells [5]; [8],DMT-F2P-Me (12)>FB2P (1)˜BF2P (8)>F2P (4)˜F2P-Me (10)>FP
same,F2P reporter fluorescence in neurons,[1]; brief (˜15 min) bath application,fluorescence detected in both the cell body and the dendrites
